Experimental data reported in PubChem BioAssay AID1963446 (Molecular Pharmacology Branch, DTP, NCI, 2024).

Test system: 993429-296-R-J1-PDC complex spheroid growth, percent test/control
Test: Anticancer human tumor 993429-296-R-J1-PDC patient-derived uterine sarcoma cell line growth inhibition [Asc]
Conditions: for IC50: curve of first compound; for viability, T/C: stronger effect = lower value
Summary of the method: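 Complex solid-tumor spheroids incorporating human endothelial and mesenchymal stem cells received single agents or combinations over half-log dilution ranges anchored to clinical Cmax.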

[1] = second compound 0.01 µM, first compound 0.0316 µM
[2] = second compound 0.01 µM, first compound 0.1 µM
[3] = second compound 0.01 µM, first compound 0.316 µM
[4] = second compound 0.01 µM, first compound 1 µM
[5] = second compound 0.01 µM, first compound 3.16 µM
[6] = second compound 0.01 µM, first compound 10 µM
[7] = second compound 0.0316 µM, first compound 0.0316 µM
[8] = second compound 0.0316 µM, first compound 0.1 µM
[9] = second compound 0.0316 µM, first compound 0.316 µM
[10] = second compound 0.0316 µM, first compound 1 µM
[11] = second compound 0.0316 µM, first compound 3.16 µM
[12] = second compound 0.0316 µM, first compound 10 µM
[13] = second compound 0.1 µM, first compound 0.0316 µM
[14] = second compound 0.1 µM, first compound 0.1 µM
[15] = second compound 0.1 µM, first compound 0.316 µM
[16] = second compound 0.1 µM, first compound 1 µM
[17] = second compound 0.1 µM, first compound 3.16 µM
[18] = second compound 0.1 µM, first compound 10 µM
[19] = second compound 0.316 µM, first compound 0.0316 µM
[20] = second compound 0.316 µM, first compound 0.1 µM
[21] = second compound 0.316 µM, first compound 0.316 µM
[22] = second compound 0.316 µM, first compound 1 µM
[23] = second compound 0.316 µM, first compound 3.16 µM
[24] = second compound 0.316 µM, first compound 10 µM
[25] = second compound 1 µM, first compound 0.0316 µM
[26] = second compound 1 µM, first compound 0.1 µM
[27] = second compound 1 µM, first compound 0.316 µM
[28] = second compound 1 µM, first compound 1 µM
[29] = second compound 1 µM, first compound 3.16 µM
[30] = second compound 1 µM, first compound 10 µM
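Also: spheroids exposed to compounds for seven days.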

SMILES | IC50 (second compound 0.01 µM) [µM] | IC50 (second compound 0.0316 µM) [µM] | IC50 (second compound 0.1 µM) [µM] | IC50 (second compound 0.316 µM) [µM] | IC50 (second compound 1 µM) [µM] | viability, T/C [1] [%] | viability, T/C [2] [%] | viability, T/C [3] [%] | viability, T/C [4] [%] | viability, T/C [5] [%] | viability, T/C [6] [%] | viability, T/C [7] [%] | viability, T/C [8] [%] | viability, T/C [9] [%] | viability, T/C [10] [%] | viability, T/C [11] [%] | viability, T/C [12] [%] | viability, T/C [13] [%] | viability, T/C [14] [%] | viability, T/C [15] [%] | also measured
C#Cc1c(F)ccc2cc(O)cc(-c3ncc4c(N5CC6CCC(C5)N6)nc(OCC56CCCN5CC(F)C6)nc4c3F)c12 (stereo not given) + CNC(C)C(=O)NC1CN(S(=O)(=O)c2cccc(S(=O)(=O)N3CCC4CCC(C(=O)NC(c5ccccc5)c5ccccc5)N4C(=O)C(NC(=O)C(C)NC)C3)c2)CCC2CCC(C(=O)NC(c3ccccc3)c3ccccc3)N2C1=O | 4.7 | 4.62 | 2.63 | 3.31 | < 0.0316 | 71.7 | 67.2 | 69.5 | 57.3 | 64.3 | 25.6 | 58.8 | 66.6 | 56.5 | 67.4 | 60.5 | 28 | 61 | 62.1 | 67.1 | viability, T/C [16]: 61.7%; viability, T/C [17]: 47.7%; viability, T/C [18]: 28.4%; viability, T/C [19]: 45.2%; viability, T/C [20]: 55.8%; viability, T/C [21]: 43.3%; viability, T/C [22]: 48.8%; viability, T/C [23]: 64.7%; viability, T/C [24]: 16.3%; viability, T/C [25]: 49.9%; viability, T/C [26]: 50.2%; viability, T/C [27]: 39.5%; viability, T/C [28]: 58%; viability, T/C [29]: 50.2%; viability, T/C [30]: 25%
C=C(F)C(=O)N1CCN(c2nc(OCC3CCCN3C)nc3c2CCN(c2cccc4cccc(Cl)c24)C3)CC1CC#N (stereo not given) + CNC(C)C(=O)NC1CN(S(=O)(=O)c2cccc(S(=O)(=O)N3CCC4CCC(C(=O)NC(c5ccccc5)c5ccccc5)N4C(=O)C(NC(=O)C(C)NC)C3)c2)CCC2CCC(C(=O)NC(c3ccccc3)c3ccccc3)N2C1=O | 1.01 | 1.04 | 0.617 | < 0.0316 | 0.0559 | 54.2 | 59.8 | 57.6 | 50.4 | 7.74 | 0.13 | 59.9 | 58.6 | 55.4 | 51.7 | 5.7 | 0.12 | 51.4 | 54.7 | 54.8 | viability, T/C [16]: 47.4%; viability, T/C [17]: 7.4%; viability, T/C [18]: 0.12%; viability, T/C [19]: 45.9%; viability, T/C [20]: 52.4%; viability, T/C [21]: 40.3%; viability, T/C [22]: 45.4%; viability, T/C [23]: 7.07%; viability, T/C [24]: 0.12%; viability, T/C [25]: 57.8%; viability, T/C [26]: 37.8%; viability, T/C [27]: 37.6%; viability, T/C [28]: 34.2%; viability, T/C [29]: 3.13%; viability, T/C [30]: 0.2%
